6 molecules from ChEMBL document CHEMBL4229526, “Quinoxaline derivatives as potential antitrypanosomal and antileishmanial agents” (Bioorg Med Chem, 2018) can be followed below.

As usually defined, the IC50 is the concentration that inhibits the measured activity by half. A word on the CC50: it is the concentration that lowers cell viability or growth by half.

For one data set, the system named is H9c2. Nature of the data set: Cytotoxicity against rat H9c2 cells infected with Trypanosoma cruzi Tulahuen amastigote forms assessed as reduction in cell number after 72 hrs by DRAQ5 DNA dye based confocal microscopic analysis. Conditions: H9c2, 72 h.
In the case of `COc1ccc2nc(-c3ccc(Cl)cc3)c(-c3ccc(S(C)(=O)=O)cc3)nc2c1`, the IC50 came out at 5.01 µM.

Take `COc1ccc2nc(-c3ccc(Cl)cc3)c(-c3ccc([S+](C)[O-])cc3)nc2c1` (centres undefined): the IC50 stood at 6.31 µM.

`COc1ccc2nc(-c3ccc(S(C)(=O)=O)cc3)c(-c3ccc(Cl)cc3)nc2c1`: the half-inhibitory concentration (IC50) stood at 10 µM.

For `CS(=O)(=O)c1ccc(-c2nc3ccc(Cl)cc3nc2-c2ccc(Cl)cc2)cc1`, the half-maximal inhibitory concentration (IC50) worked out at 1.58 µM.

Consider `C[S+]([O-])c1ccc(-c2nc3ccc(Cl)cc3nc2-c2ccc(Cl)cc2)cc1` (centres undefined), for which the half-maximal inhibitory concentration (IC50) amounted to 1.58 µM.

Regarding `CS(=O)(=O)c1ccc(-c2nc3ccccc3nc2-c2ccc(Cl)cc2)cc1`, the IC50 was determined as 5.01 µM.

In a further data set the test system is Trypanosoma cruzi. The experiment in a line: Antitrypanosomal activity against Trypanosoma cruzi Tulahuen trypomastigote forms infected in monkey LLC-MK2 cells after 24 hrs by CellTiter-Glo luminescent cell viability assay. Type of data set: functional, organism-based. Conditions: LLC-MK2, 24 h. (In ATP-based viability assays light output follows the ATP content of the culture.)
`COc1ccc2nc(-c3ccc(Cl)cc3)c(-c3ccc(S(C)(=O)=O)cc3)nc2c1` returned a 50% inhibitory concentration (IC50) of 1.14 µM.

In the case of `COc1ccc2nc(-c3ccc(Cl)cc3)c(-c3ccc([S+](C)[O-])cc3)nc2c1` (centres undefined), 1.04 µM corresponded to half-maximal inhibition (IC50).

`COc1ccc2nc(-c3ccc(S(C)(=O)=O)cc3)c(-c3ccc(Cl)cc3)nc2c1` returned a concentration for half-maximal inhibition (IC50) of 4.21 µM.

On to `CS(=O)(=O)c1ccc(-c2nc3ccc(Cl)cc3nc2-c2ccc(Cl)cc2)cc1`, for which the IC50 turned out to be 0.09 µM.

Turning to `C[S+]([O-])c1ccc(-c2nc3ccc(Cl)cc3nc2-c2ccc(Cl)cc2)cc1` (centres undefined), the half-inhibitory concentration (IC50) was found to be 0.1 µM.

With `CS(=O)(=O)c1ccc(-c2nc3ccccc3nc2-c2ccc(Cl)cc2)cc1`, the IC50 amounted to 0.7 µM.

In another data set the test system is Trypanosoma cruzi. The experiment in a line: Antitrypanosomal activity against Trypanosoma cruzi Tulahuen amastigote forms infected in rat H9c2 cells assessed as reduction in amastigote number per cell after 72 hrs by DRAQ5 DNA dye based confocal microscopic analysis. The data set is classed as functional, organism-based. Conditions: H9c2, 72 h.
As to `COc1ccc2nc(-c3ccc(Cl)cc3)c(-c3ccc(S(C)(=O)=O)cc3)nc2c1`, the IC50 turned out to be 7.94 µM.

As for `COc1ccc2nc(-c3ccc(Cl)cc3)c(-c3ccc([S+](C)[O-])cc3)nc2c1` (centres undefined), the IC50 was found to be 10 µM.

As for `COc1ccc2nc(-c3ccc(S(C)(=O)=O)cc3)c(-c3ccc(Cl)cc3)nc2c1`, the half-inhibitory concentration (IC50) was 19.9 µM.

`CS(=O)(=O)c1ccc(-c2nc3ccc(Cl)cc3nc2-c2ccc(Cl)cc2)cc1`: the IC50 amounted to 2 µM.

On to `C[S+]([O-])c1ccc(-c2nc3ccc(Cl)cc3nc2-c2ccc(Cl)cc2)cc1` (centres undefined), for which the IC50 was found to be 1.58 µM.

For the molecule `CS(=O)(=O)c1ccc(-c2nc3ccccc3nc2-c2ccc(Cl)cc2)cc1`, the IC50 is 10 µM.

Another data set concerns Leishmania donovani. The experiment in a line: Potency index, ratio of miltefosine IC50 to test compound IC50 for Leishmania donovani MHOM/SD/62/1S-CL2D LdBOB axenic amastigotes harboring eGFP. The data set is classed as functional.
Details: not given
`CS(=O)(=O)c1ccc(-c2nc3ccc(Cl)cc3nc2-c2ccc(Cl)cc2)cc1`: the “Ratio IC50” value was found to be 26.3.

`C[S+]([O-])c1ccc(-c2nc3ccc(Cl)cc3nc2-c2ccc(Cl)cc2)cc1` (centres undefined): the “Ratio IC50” value came to 26.3.

A further data set deals with THP-1. Nature of the data set: Cytotoxicity against human THP1 cells infected with Leishmania donovani MHOM/SD/62/1S-CL2D LdBOB amastigotes harboring eGFP assessed as reduction in cell number after 96 hrs by DAPI staining based microscopic analysis. Conditions: THP-1, 96 h.
Consider `COc1ccc2nc(-c3ccc(Cl)cc3)c(-c3ccc(S(C)(=O)=O)cc3)nc2c1`, for which the IC50 was 7.94 µM.

Consider `COc1ccc2nc(-c3ccc(Cl)cc3)c(-c3ccc([S+](C)[O-])cc3)nc2c1` (centres undefined), for which the 50% inhibitory concentration (IC50) was 12.6 µM.

With `COc1ccc2nc(-c3ccc(S(C)(=O)=O)cc3)c(-c3ccc(Cl)cc3)nc2c1`, the IC50 was 12.6 µM.

As to `CS(=O)(=O)c1ccc(-c2nc3ccc(Cl)cc3nc2-c2ccc(Cl)cc2)cc1`, the half-inhibitory concentration (IC50) came out at 1.58 µM.

Regarding `C[S+]([O-])c1ccc(-c2nc3ccc(Cl)cc3nc2-c2ccc(Cl)cc2)cc1` (centres undefined), the half-maximal inhibitory concentration (IC50) came out at 1.58 µM.

Turning to `CS(=O)(=O)c1ccc(-c2nc3ccccc3nc2-c2ccc(Cl)cc2)cc1`, the 50% inhibitory concentration (IC50) is 10 µM.

Another data set has as its system Leishmania donovani. Nature of the data set: Antileishmanial activity against Leishmania donovani MHOM/SD/62/1S-CL2D LdBOB axenic amastigotes harboring eGFP after 72 hrs by resazurin dye based fluorescence assay. The data set is classed as functional, organism-based.
Details: not given
Background: The colour change of resazurin is a common sign of viable cells or microbes.
For `COc1ccc2nc(-c3ccc(Cl)cc3)c(-c3ccc(S(C)(=O)=O)cc3)nc2c1`, half-maximal inhibition (IC50) required 2.51 µM.

`COc1ccc2nc(-c3ccc(Cl)cc3)c(-c3ccc([S+](C)[O-])cc3)nc2c1` (centres undefined) showed a 50% inhibitory concentration (IC50) of 3.16 µM.

Turning to `COc1ccc2nc(-c3ccc(S(C)(=O)=O)cc3)c(-c3ccc(Cl)cc3)nc2c1`, the IC50 came out at 7.94 µM.

In the case of `CS(=O)(=O)c1ccc(-c2nc3ccc(Cl)cc3nc2-c2ccc(Cl)cc2)cc1`, the IC50 was found to be 0.32 µM.

For `C[S+]([O-])c1ccc(-c2nc3ccc(Cl)cc3nc2-c2ccc(Cl)cc2)cc1` (centres undefined), the half-maximal inhibitory concentration (IC50) was 0.32 µM.

As for `CS(=O)(=O)c1ccc(-c2nc3ccccc3nc2-c2ccc(Cl)cc2)cc1`, the IC50 is 3.16 µM.

For a further data set, the system named is Leishmania donovani. Nature of the data set: Antileishmanial activity against Leishmania donovani MHOM/SD/62/1S-CL2D LdBOB amastigotes harboring eGFP infected in human THP1 cells assessed as reduction in number of amastigotes per cell after 96 hrs by DAPI staining based microscopic analysis. Type of data set: functional, organism-based. Conditions: THP-1, 96 h.
Take `COc1ccc2nc(-c3ccc(Cl)cc3)c(-c3ccc(S(C)(=O)=O)cc3)nc2c1`: the concentration for half-maximal inhibition (IC50) is 12.6 µM.

Consider `COc1ccc2nc(-c3ccc(Cl)cc3)c(-c3ccc([S+](C)[O-])cc3)nc2c1` (centres undefined), for which the half-inhibitory concentration (IC50) turned out to be 12.6 µM.

On to `COc1ccc2nc(-c3ccc(S(C)(=O)=O)cc3)c(-c3ccc(Cl)cc3)nc2c1`, for which the IC50 turned out to be 19.9 µM.

For `CS(=O)(=O)c1ccc(-c2nc3ccc(Cl)cc3nc2-c2ccc(Cl)cc2)cc1`, the IC50 is 5.01 µM.

Take `C[S+]([O-])c1ccc(-c2nc3ccc(Cl)cc3nc2-c2ccc(Cl)cc2)cc1` (centres undefined): the IC50 was 3.98 µM.

Consider `CS(=O)(=O)c1ccc(-c2nc3ccccc3nc2-c2ccc(Cl)cc2)cc1`, for which the 50% inhibitory concentration (IC50) was 10 µM.

The subject of another data set is Trypanosoma brucei. The experiment in a line: Antitrypanosomal activity against Trypanosoma brucei Lister 427 bloodstream forms after 48 hrs by resazurin dye based fluorescence assay. The data set is classed as functional, organism-based. Conditions: Lister 427, 48 h.
In the case of `COc1ccc2nc(-c3ccc(Cl)cc3)c(-c3ccc(S(C)(=O)=O)cc3)nc2c1`, the concentration for half-maximal inhibition (IC50) is 19.9 µM.

`COc1ccc2nc(-c3ccc(Cl)cc3)c(-c3ccc([S+](C)[O-])cc3)nc2c1` (centres undefined) had a 50% inhibitory concentration (IC50) of 3.98 µM.

`COc1ccc2nc(-c3ccc(S(C)(=O)=O)cc3)c(-c3ccc(Cl)cc3)nc2c1` gave an IC50 of 10 µM.

Consider `CS(=O)(=O)c1ccc(-c2nc3ccc(Cl)cc3nc2-c2ccc(Cl)cc2)cc1`, for which it took 2.51 µM to reach half-maximal inhibition (IC50).

For the molecule `C[S+]([O-])c1ccc(-c2nc3ccc(Cl)cc3nc2-c2ccc(Cl)cc2)cc1` (centres undefined), the half-inhibitory concentration (IC50) was found to be 0.63 µM.

`CS(=O)(=O)c1ccc(-c2nc3ccccc3nc2-c2ccc(Cl)cc2)cc1`: the IC50 came to 10 µM.

Tested on in another data set: not listed separately
The experiment in a line: Cytotoxicity against human HepG2 cells after 48 hrs by CellTiter-Glo cell viability assay. Type of data set: cell-based.
Details: not given
Regarding `COc1ccc2nc(-c3ccc(Cl)cc3)c(-c3ccc(S(C)(=O)=O)cc3)nc2c1`, it took 5.01 µM to reach half-maximal cytotoxicity (CC50 at 48 h).

`COc1ccc2nc(-c3ccc(Cl)cc3)c(-c3ccc([S+](C)[O-])cc3)nc2c1` (centres undefined) displayed a 50% cytotoxic concentration (CC50) at 48 h of 7.94 µM.

On to `COc1ccc2nc(-c3ccc(S(C)(=O)=O)cc3)c(-c3ccc(Cl)cc3)nc2c1`, for which the cytotoxic concentration (CC50) at 48 h was determined as 25.1 µM.

For `CS(=O)(=O)c1ccc(-c2nc3ccc(Cl)cc3nc2-c2ccc(Cl)cc2)cc1`, the CC50 at 48 h was 2 µM.

`C[S+]([O-])c1ccc(-c2nc3ccc(Cl)cc3nc2-c2ccc(Cl)cc2)cc1` (centres undefined) showed a CC50 at 48 h of 1.58 µM.

Molecule `CS(=O)(=O)c1ccc(-c2nc3ccccc3nc2-c2ccc(Cl)cc2)cc1` displayed a CC50 at 48 h of 10 µM.

A further data set relates to Leishmania donovani. Nature of the data set: Antileishmanial activity against Leishmania donovani MHOM/SD/62/1S-CL2D LdBOB amastigotes harboring eGFP infected in human THP1 cells assessed as reduction in infected cells after 96 hrs by DAPI staining based microscopic analysis. Type of data set: functional, organism-based. Conditions: THP-1, 96 h.
Take `COc1ccc2nc(-c3ccc(Cl)cc3)c(-c3ccc(S(C)(=O)=O)cc3)nc2c1`: the IC50 came out at 10 µM.

Consider `COc1ccc2nc(-c3ccc(Cl)cc3)c(-c3ccc([S+](C)[O-])cc3)nc2c1` (centres undefined), for which the half-maximal inhibitory concentration (IC50) came out at 12.6 µM.

For `COc1ccc2nc(-c3ccc(S(C)(=O)=O)cc3)c(-c3ccc(Cl)cc3)nc2c1`, the half-inhibitory concentration (IC50) was found to be 19.9 µM.

As to `CS(=O)(=O)c1ccc(-c2nc3ccc(Cl)cc3nc2-c2ccc(Cl)cc2)cc1`, the half-inhibitory concentration (IC50) worked out at 5.01 µM.

On to `C[S+]([O-])c1ccc(-c2nc3ccc(Cl)cc3nc2-c2ccc(Cl)cc2)cc1` (centres undefined), for which the IC50 was determined as 3.16 µM.

In the case of `CS(=O)(=O)c1ccc(-c2nc3ccccc3nc2-c2ccc(Cl)cc2)cc1`, the half-maximal inhibitory concentration (IC50) was found to be 10 µM.

The test system of the next data set is Leishmania donovani. The experiment in a line: Potency index, ratio of amphotericin B IC50 to test compound IC50 for Leishmania donovani MHOM/SD/62/1S-CL2D LdBOB axenic amastigotes harboring eGFP.
Details: not given
Type of data set: functional.
As for `CS(=O)(=O)c1ccc(-c2nc3ccc(Cl)cc3nc2-c2ccc(Cl)cc2)cc1`, the “Ratio IC50” value turned out to be 5.3.

As to `C[S+]([O-])c1ccc(-c2nc3ccc(Cl)cc3nc2-c2ccc(Cl)cc2)cc1` (centres undefined), the “Ratio IC50” value was determined as 5.3.

Another data set concerns Trypanosoma cruzi. Nature of the data set: Antitrypanosomal activity against Trypanosoma cruzi Tulahuen amastigote forms infected in rat H9c2 cells assessed as reduction in infected cells after 72 hrs by DRAQ5 DNA dye based confocal microscopic analysis. The data set is classed as functional, organism-based. Conditions: H9c2, 72 h.
As for `COc1ccc2nc(-c3ccc(Cl)cc3)c(-c3ccc(S(C)(=O)=O)cc3)nc2c1`, the 50% inhibitory concentration (IC50) was determined as 10 µM.

As for `COc1ccc2nc(-c3ccc(Cl)cc3)c(-c3ccc([S+](C)[O-])cc3)nc2c1` (centres undefined), the IC50 came to 12.6 µM.

On to `COc1ccc2nc(-c3ccc(S(C)(=O)=O)cc3)c(-c3ccc(Cl)cc3)nc2c1`, for which the IC50 was found to be 25.1 µM.

Turning to `CS(=O)(=O)c1ccc(-c2nc3ccc(Cl)cc3nc2-c2ccc(Cl)cc2)cc1`, the half-maximal inhibitory concentration (IC50) came out at 2 µM.

For the molecule `C[S+]([O-])c1ccc(-c2nc3ccc(Cl)cc3nc2-c2ccc(Cl)cc2)cc1` (centres undefined), the half-maximal inhibitory concentration (IC50) worked out at 2 µM.

For `CS(=O)(=O)c1ccc(-c2nc3ccccc3nc2-c2ccc(Cl)cc2)cc1`, the concentration for half-maximal inhibition (IC50) was 12.6 µM.
